Measured values reported in US5294617A, “Angiotensin II receptor blocking 2,3,6 substituted quinazolinones” (American Cyanamid Company, priority 1993, dated 1994).

Target: T1, Angiotensin II Receptor (Bos taurus, UniProt P25104)
T1 construct: The brownish tissue forming the adrenal cortex is scraped off and finely minced with scissors before homogenization; tissue local slaughter house (Maxwell--Cohen); host or cells: beef adrenal cortex, microsomal membranes (100,000×g pellet)
T1 sequence (P25104 1-359): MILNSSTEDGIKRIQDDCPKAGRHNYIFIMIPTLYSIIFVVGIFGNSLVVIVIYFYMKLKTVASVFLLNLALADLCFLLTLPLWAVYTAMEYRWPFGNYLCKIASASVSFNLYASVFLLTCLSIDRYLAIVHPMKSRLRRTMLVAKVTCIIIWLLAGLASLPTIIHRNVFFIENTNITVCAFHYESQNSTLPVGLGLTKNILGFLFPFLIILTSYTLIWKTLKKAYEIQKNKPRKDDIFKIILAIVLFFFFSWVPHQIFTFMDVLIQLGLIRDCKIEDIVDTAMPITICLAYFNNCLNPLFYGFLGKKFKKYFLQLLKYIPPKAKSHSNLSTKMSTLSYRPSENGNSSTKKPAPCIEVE
Assay: Receptor Binding Assay: binding of [125I](Sar1,Ile8)AngII to beef adrenal cortex membranes
Conditions: radioligand, beef adrenal membranes; non-specific with 1.0 uM unlabeled (Sar1,Ile8)AngII
From the text: [^125 I](Sar^1,Ile^8)AngII, S.A. 2200 Ci/mmole, is purchased from Dupont (NEN®, Boston, Mass.). All unlabeled AngII analogs, Dimethylsulfoxide (DMSO), nucleotides, bovine serum albumin (BSA) are purchased from Sigma Chemical Co., St. Louis, Mo. U.S.A.
Approximately sixteen (16) to twenty (20) beef adrenal glands are processed as follows: fresh adrenal glands received on crushed ice are cleaned of fatty tissues and the tough membranes encapsulating the glands are removed and discarded. The brownish tissue forming the adrenal cortex is scraped off and finely minced with scissors before homogenization. Care is taken to avoid contamination with medullary tissue during dissection. The scraped cortices are suspended in twenty volumes of an ice-cold buffer medium consisting of 10 mM Tris.HCl (pH 7.4 at 22° C.) and containing 1.0 mM EDTA and 0.2M sucrose. Unless otherwise indicated, all subsequent operations are done at 4° C. […] The homogenate is centrifuged first at low speed (3,000×g) for 10 min. […] This P2 pellet is discarded and the liquid phase is carefully decanted off in clean centrifuge tubes and recentrifuged at high speed (100,000×g) for 60 min. The translucent final pellet is harvested and combined in a small volume (20-50.0 ml) of 50.0 mM Tris.HCl buffer, pH 7.2. […] The pelleted membrane is reconstituted in 50.0 mM Tris.HCl buffer containing 0.1 mM of phenylmethylsulfonyl fluoride (PMSF) to give approximately a protein concentration of 2.5 mg per ml of tissue suspension. The membrane preparation is finally aliquoted in 1.0 ml volumes and stored at -70° C. until use in the binding assays.
In competition studies, experimental compounds are diluted in dimethylsulfoxide (DMSO) and added in 20 ul to wells before the introduction of tissue membranes. […] Assays are performed in triplicate. The wells are left undisturbed for 60 min. at room temperature. […] The filters are removed from the filter grid and counted in a Parkard® Cobra Gamma Counter for 1 min. […] The binding data are analyzed by the non-linear interactive "LUNDON-1" program (LUNDON SOFTWARE Inc., Cleveland, Ohio U.S.A.).

With “[^125 I](Sar^1,Ile^8) AngII [reference compound]” as the substance, how does the Specific binding read?
The Specific binding was “greater than 90%”.
